The values that follow come from patent publication US12030904B2 (priority 2020, dated 2024).

Where two headings read alike, the source gives them in different places.

Data set [1] has as its system Recombinant Respiratory Syncytial virus strain A2 containing the firefly luciferase reporter (RSV-Fluc). As to the kind of experiment: microbe, parasite or virus in culture. The class given is cell-based. Conditions: human respiratory syncytial virus, NHBE.
Another data set concerns SARS-CoV-2. Description: microbe, parasite or virus in culture. The data set is classed as cell-based.
A short description of the next data set: MT4 cytotoxicity (CC50). As to conditions: human, MT4 cells.
Where [2] appears, read: Severe acute respiratory syndrome coronavirus 2, read-out: SARS EC50.
Where [3] appears, read: 72 h, read-out: RSV-Fluc EC50 (NHBE), NHBE cells, three days, Table 2.

On to `CCCCCCCCCCCCCCCCCCOC[C@H](COP(=O)(O)OC[C@H]1O[C@@](C#N)(c2ccc3c(N)ncnn23)[C@H](O)[C@@H]1O)OCc1ccc(C#N)cc1F` [Example 53, ((2R,3S,4R,5R)-5-(4-aminopyrrolo[2,1-f][1,2,4]triazin-7-yl)-5-cyano-3,4-dihydroxytetrahydrofuran-2-yl)methyl ((R)-2-((4-cyano-2-fluorobenzyl)oxy)-3-(octadecyloxy)propyl) hydrogen phosphate], for which the EC50 (usually the concentration that produces a half-maximal response) in data set [1] (read-out: RSV EC50, Table 2a) turned out to be 32 nM; in the data set on SARS-CoV-2 (setting [2]), 912 nM. For the same molecule, the CC50 – broadly, the concentration at which the toxic effect on the cells reaches its halfway point – in “MT4 cytotoxicity (CC50)” (MT4 CC50, Table 2a) is 1840 nM.
Consider `CCCCCCCCCCCCCCCCCCOC[C@H](COP(=O)(O)OC[C@H]1O[C@@](C#N)(c2ccc3c(N)ncnn23)[C@H](O)[C@@H]1O)OCc1ccc(OC)c(C#N)c1` [Example 115, [(2R,3S,4R,5R)-5-(4-Aminopyrrolo[2,1-f][1,2,4]triazin-7-yl)-5-cyano-3,4-dihydroxy-tetrahydrofuran-2-yl]methyl [(2R)-2-[(3-cyano-4-methoxy-phenyl)methoxy]-3-octadecoxy-propyl] hydrogen phosphate], for which the EC50 stood at 166 nM in data set [1] (read-out: RSV EC50, Table 4) and 390 nM in the data set on SARS-CoV-2 (setting [2]). Also, the CC50 in the data set “MT4 cytotoxicity (CC50)” (MT4 CC50, Table 4) is 1460 nM.
`CCCCCCCCCCCCCCCCCCOC[C@H](COP(=O)(O)OC[C@H]1O[C@@](C#N)(c2ccc3c(N)ncnn23)[C@H](O)[C@@H]1O)OCc1ccc(OC)c(Cl)c1` [Example 49, ((2R,3S,4R,5R)-5-(4-aminopyrrolo[2,1-f][1,2,4]triazin-7-yl)-5-cyano-3,4-dihydroxytetrahydrofuran-2-yl)methyl ((R)-2-((3-chloro-4-methoxybenzyl)oxy)-3-(octadecyloxy)propyl) hydrogen phosphate]: the EC50 in data set [1] (setting [3]) was 230 nM; in data set [1] (read-out: RSV EC50, Table 2a), 232 nM; in the data set with SARS-CoV-2 (setting [2]) it was 3350 nM. For the same molecule, in the data set “MT4 cytotoxicity (CC50)” (MT4 CC50, Table 2a), the CC50 is 951 nM.
As for `CCCCCCCCCCOCCCOP(=O)(O)OC[C@H]1O[C@@](C#N)(c2ccc3c(N)ncnn23)[C@H](O)[C@@H]1O` [Example 56, ((2R,3S,4R,5R)-5-(4-Aminopyrrolo[2,1-f][1,2,4]triazin-7-yl)-5-cyano-3,4-dihydroxytetrahydrofuran-2-yl)methyl (3-(decyloxy)propyl) hydrogen phosphate], the EC50 in data set [1] (setting [3]) worked out at 5000 nM; in data set [1] (read-out: RSV EC50, Table 2a) it was 5000 nM; in the data set on SARS-CoV-2 (setting [2]), 10000 nM. In the data set “MT4 cytotoxicity (CC50)” (MT4 CC50, Table 2a), this molecule came in with a CC50 of 50000 nM.
On to `CCCCCCCC/C=C\CCCCCCCCOC[C@H](COP(=O)(O)OC[C@H]1O[C@@](C#N)(c2ccc3c(N)ncnn23)[C@H](O)[C@@H]1O)OCc1ccccc1` [Example 130, ((2R,3S,4R,5R)-5-(4-aminopyrrolo[2,1-f][1,2,4]triazin-7-yl)-5-cyano-3,4-dihydroxytetrahydrofuran-2-yl)methyl ((R)-2-(benzyloxy)-3-(((Z)-octadec-9-en-1-yl)oxy)propyl) hydrogen phosphate], for which the EC50 is 39 nM in data set [1] (read-out: RSV EC50, Table 4) and 110 nM with SARS-CoV-2 (setting [2]). Further, it took 3560 nM to reach half-maximal cytotoxicity in “MT4 cytotoxicity (CC50)” (MT4 CC50, Table 4) (CC50).
On to `CCCCCCCCCCCCCCCCCCOCCCOP(=O)(O)OC[C@H]1O[C@@](C#N)(c2ccc3c(N)ncnn23)[C@H](O)[C@@H]1O` [Example 59, ((2R,3S,4R,5R)-5-(4-Aminopyrrolo[2,1-f][1,2,4]triazin-7-yl)-5-cyano-3,4-dihydroxytetrahydrofuran-2-yl)methyl (3-(octadecyloxy)propyl) hydrogen phosphate], for which the EC50 in data set [1] (setting [3]) amounted to 170 nM; in data set [1] (read-out: RSV EC50, Table 2a), 171 nM; in the data set with SARS-CoV-2 (setting [2]), 10000 nM. In addition, in the data set “MT4 cytotoxicity (CC50)” (MT4 CC50, Table 2a), half-maximal cytotoxicity (CC50) was put at 19600 nM.
In the same order, the values of `CCCCCCCCCCCCCCCCCCOC[C@H](COP(=O)(O)OC[C@H]1O[C@@](C#N)(c2ccc3c(N)ncnn23)[C@H](O)[C@@H]1O)OC` [Example 44, ((2R,3S,4R,5R)-5-(4-aminopyrrolo[2,1-f][1,2,4]triazin-7-yl)-5-cyano-3,4-dihydroxytetrahydrofuran-2-yl)methyl ((R)-2-methoxy-3-(octadecyloxy)propyl) hydrogen phosphate] are 53 nM, 53 nM, 917 nM and 4000 nM.
Consider `CCCCCCCCCCCCCCCCCCOC[C@H](COP(=O)(O)OC[C@H]1O[C@@](C#N)(c2ccc3c(N)ncnn23)[C@H](O)[C@@H]1O)OCc1ccc(Cl)cc1` [Example 41, ((2R,3S,4R,5R)-5-(4-aminopyrrolo[2,1-f][1,2,4]triazin-7-yl)-5-cyano-3,4-dihydroxytetrahydrofuran-2-yl)methyl ((R)-2-((4-chlorobenzyl)oxy)-3-(octadecyloxy)propyl) hydrogen phosphate], for which the EC50 is 52 nM in data set [1] (setting [3]); 52 nM in data set [1] (read-out: RSV EC50, Table 2a); 174 nM in the data set on SARS-CoV-2 (setting [2]). In “MT4 cytotoxicity (CC50)” (MT4 CC50, Table 2a), it took 2410 nM to reach half-maximal cytotoxicity (CC50).
As for `CCCCCCCCCCCCCCCCCCOC[C@H](COP(=O)(O)OC[C@H]1O[C@@](C#N)(c2ccc3c(N)ncnn23)[C@H](O)[C@@H]1O)OCc1cncc(C#N)c1` [Example 75, ((2R,3S,4R,5R)-5-(4-aminopyrrolo[2,1-f][1,2,4]triazin-7-yl)-5-cyano-3,4-dihydroxytetrahydrofuran-2-yl)methyl ((R)-2-((5-cyanopyridin-3-yl)methoxy)-3-(octadecyloxy)propyl) hydrogen phosphate], the EC50 stood at 72 nM in data set [1] (read-out: RSV EC50, Table 4) and 28 nM in the data set with SARS-CoV-2 (setting [2]). Further, it took 195 nM to reach half-maximal cytotoxicity in the data set “MT4 cytotoxicity (CC50)” (MT4 CC50, Table 4) (CC50).
Regarding `CCCCCCCCCCCCCCCCCCOC[C@H](COP(=O)(O)OC[C@H]1O[C@@](C#N)(c2ccc3c(N)ncnn23)[C@H](O)[C@@H]1O)Oc1cccc(C#N)c1` [Example 30, ((2R,3S,4R,5R)-5-(4-aminopyrrolo[2,1-f][1,2,4]triazin-7-yl)-5-cyano-3,4-dihydroxytetrahydrofuran-2-yl)methyl ((R)-2-(3-cyanophenoxy)-3-(octadecyloxy)propyl) hydrogen phosphate], the EC50 in data set [1] (setting [3]) is 17 nM; in data set [1] (read-out: RSV EC50, Table 2a), 17 nM; in the data set with SARS-CoV-2 (setting [2]) it was 97 nM. The molecule further showed a CC50 in “MT4 cytotoxicity (CC50)” (MT4 CC50, Table 2a) of 188 nM.
For the molecule `CCCCCCCCCCCCCCCCCCOC[C@H](COP(=O)(O)OC[C@H]1O[C@@](C#N)(c2ccc3c(N)ncnn23)[C@H](O)[C@@H]1O)Oc1cccc(C#N)n1` [Example 100, [(2R,3S,4R,5R)-5-(4-aminopyrrolo[2,1-f][1,2,4]triazin-7-yl)-5-cyano-3,4-dihydroxy-tetrahydrofuran-2-yl]methyl [(2R)-2-[(6-cyano-2-pyridyl)oxy]-3-octadecoxy-propyl]hydrogen phosphate], the EC50 came out at 58 nM in data set [1] (read-out: RSV EC50, Table 4) and 340 nM in the data set on SARS-CoV-2 (setting [2]). In “MT4 cytotoxicity (CC50)” (MT4 CC50, Table 4), this molecule displayed a CC50 of 1180 nM.
`CCCCCCCCCCCCCCCCCCOC[C@H](COP(=O)(O)OC[C@H]1O[C@@](C#N)(c2ccc3c(N)ncnn23)[C@H](O)[C@@H]1O)OCc1ccc(F)c(C#N)c1` [Example 98, [(2R,3S,4R,5R)-5-(4-aminopyrrolo[2,1-f][1,2,4]triazin-7-yl)-5-cyano-3,4-dihydroxy-tetrahydrofuran-2-yl]methyl [(2R)-2-[(3-cyano-4-fluoro-phenyl)methoxy]-3-octadecoxy-propyl] hydrogen phosphate]: the EC50 came out at 1000 nM in data set [1] (read-out: RSV EC50, Table 4) and 1300 nM in the data set with SARS-CoV-2 (setting [2]). In “MT4 cytotoxicity (CC50)” (MT4 CC50, Table 4), half-maximal cytotoxicity (CC50) was put at 8980 nM.
In the case of `CCCCCCCCCCCCCCCCCCOC[C@H](COP(=O)(O)OC[C@H]1O[C@@](C#N)(c2ccc3c(N)ncnn23)[C@H](O)[C@@H]1O)OCc1ccc(F)c(Cl)c1` [Example 17], the EC50 is 20 nM in data set [1] (72 h, read-out: RSV-Fluc EC50 (NHBE), NHBE cells, three days, Table 1) and 690 nM with SARS-CoV-2 (Severe acute respiratory syndrome coronavirus 2, 48 h, read-out: SARS-CoV-2 EC50). In the data set “MT4 cytotoxicity (CC50)” (MT4 CC50, Table 1a), this molecule registered a CC50 of 2100 nM.
`CCCCCCCCCCCCCCCCCCOCC(COc1ccccc1)COP(=O)(O)OC[C@H]1O[C@@](C#N)(c2ccc3c(N)ncnn23)[C@H](O)[C@@H]1O` (stereo partly drawn) [Example 29, ((2R,3S,4R,5R)-5-(4-aminopyrrolo[2,1-f][1,2,4]triazin-7-yl)-5-cyano-3,4-dihydroxytetrahydrofuran-2-yl)methyl (3-(octadecyloxy)-2-(phenoxymethyl)propyl) hydrogen phosphate]: the EC50 worked out at 140 nM in data set [1] (setting [3]); 140 nM in data set [1] (read-out: RSV EC50, Table 2a); 3330 nM with SARS-CoV-2 (setting [2]). This molecule displayed a CC50 in “MT4 cytotoxicity (CC50)” (MT4 CC50, Table 2a) of 6160 nM.
As for `CCCCCCCCCCCCCCCCCCOC[C@H](COP(=O)(O)OC[C@H]1O[C@@](C#N)(c2ccc3c(N)ncnn23)[C@H](O)[C@@H]1O)Oc1cnc(C#N)nc1` [Example 82, ((2R,3S,4R,5R)-5-(4-aminopyrrolo[2,1-f][1,2,4]triazin-7-yl)-5-cyano-3,4-dihydroxytetrahydrofuran-2-yl)methyl ((R)-2-((2-cyanopyrimidin-5-yl)oxy)-3-(octadecyloxy)propyl) hydrogen phosphate], the EC50 in data set [1] (read-out: RSV EC50, Table 4) stood at 10 nM; with SARS-CoV-2 (setting [2]), 120 nM. In addition, the CC50 in the data set “MT4 cytotoxicity (CC50)” (MT4 CC50, Table 4) amounted to 324 nM.
In the same order, the values of `CCCCCCCCCCCCCCCCCCOC[C@H](COP(=O)(O)OC[C@H]1O[C@@](C#N)(c2ccc3c(N)ncnn23)[C@H](O)[C@@H]1O)OCc1ccc(C#N)cc1C(F)(F)F` [Example 105, [(2R,3S,4R,5R)-5-(4-Aminopyrrolo[2,1-f][1,2,4]triazin-7-yl)-5-cyano-3,4-dihydroxy-tetrahydrofuran-2-yl]methyl [(2R)-2-[[4-cyano-2-(trifluoromethyl)phenyl]methoxy]-3-octadecoxy-propyl] hydrogen phosphate] are 553 nM, 10000 nM and 20100 nM.
On to `CCCCCCCC/C=C/CCCCCCCCOC[C@H](COP(=O)(O)OC[C@H]1O[C@@](C#N)(c2ccc3c(N)ncnn23)[C@H](O)[C@@H]1O)OCc1ccc(C#N)cc1F` [Example 127, ((2R,3S,4R,5R)-5-(4-aminopyrrolo[2,1-f][1,2,4]triazin-7-yl)-5-cyano-3,4-dihydroxytetrahydrofuran-2-yl)methyl ((R)-2-((4-cyano-2-fluorobenzyl)oxy)-3-(((E)-octadec-9-en-1-yl)oxy)propyl) hydrogen phosphate], for which the EC50 was determined as 28 nM in data set [1] (read-out: RSV EC50, Table 4) and 140 nM in the data set with SARS-CoV-2 (setting [2]). The CC50 in “MT4 cytotoxicity (CC50)” (MT4 CC50, Table 4) came to 3910 nM.
